Drawing on ChEMBL document CHEMBL4130623, “Discovery of Highly Potent Pinanamine-Based Inhibitors against Amantadine- and Oseltamivir-Resistant Influenza A Viruses” (J Med Chem, 2018), this text covers EC50 for one molecule.

A value given as a limit tells only on which side of the number the result lay.

What all share (assay): microbe, parasite or virus in culture
What all share (type): functional, organism-based
Holding throughout (settings): A/Guangzhou/GIRD/07/2009 (H1N1), MDCK

The subject of test [1] is Influenza A virus.
The subject of test [2] is Influenza A virus. This is another data set of the same source.
The test system of test [3] is Influenza A virus. This is another data set of the same source.
Test [4] has as its system Influenza A virus. This is another data set of the same source.
In test [5] the test system is Influenza A virus. The source holds these as a separate data set.
For test [6], the system named is Influenza A virus. This is another data set of the same source.
Test [7] deals with Influenza A virus. The source holds these as a separate data set.
Test [8] deals with Influenza A virus. The source holds these as a separate data set.
Test [9] has as its system Influenza A virus. The source holds these as a separate data set.

By EC50 is commonly meant the midpoint of the concentration-response curve. A low value points to greater potency. Regarding `C[C@@H]1C2CC(C[C@H]1NCc1sccc1C1CC1)C2(C)C` (single isomer, unassigned), the EC50 in [1] is 8.7 µM; in test [2], over 43 µM; in [3], 0.34 µM; in [4], 0.32 µM; in test [5] it was 1.7 µM; in test [6] it was over 43 µM. Also, the EC50 in [7] is 13.8 µM; in [8], over 43 µM; in test [9] it was 25.6 µM.
